# Assay results as given in patent US8282688B2, “Laccase mediators and methods of use” (Danisco US Inc., priority 2006, dated 2012).
# “And” between values parts separate entries of the source, which are not always exact repeats. Identical values can stand only once.
# Tested on: C. unicolor laccase
# Assay: Bleaching of denim swatches with C. unicolor laccase (Example 4)
# Assay type: biochemical
# Parameters: key to ΔL Denim swatch Frontside / Δb Denim swatch Frontside / ΔL Denim swatch Backside / Δb Denim swatch Backside / Δa Denim swatch Backside / Δa Denim swatch Frontside: difference between initial and final CIE L*a*b* values; key to ΔE (total color difference) Denim swatch Backside / ΔE (total color difference) Denim swatch Frontside: ΔE = (ΔL²+Δa²+Δb²)^1/2 from CIE L*a*b* before/after bleaching
# Conditions: for ΔE (total color difference) Denim swatch Backside / ΔE (total color difference) Denim swatch Frontside / ΔL Denim swatch Backside / ΔL Denim swatch Frontside / Δa Denim swatch Backside / Δb Denim swatch Backside / Δb Denim swatch Frontside: laccase 20 ppm, pH 6, 50° C., 2 hours
# Description: Denim legs (made out of sulfur bottom/indigo dyed denim fabric from Cone Mill, style number 1662P) were pretreated with IndiAge® 2XL at a dose of 1 gram per liter in a 50 lb lab scale tumbling washer. The liquor ratio was 6 to 1 (5 kg substrate in 30 liters of water) and the treatment was performed at 55° C. at pH 4.5 for 1 hour. A warm rinse followed the cellulase treatment, after which the fabric was dried in a tumble dryer. A punch press was used to cut ⅝ inch denim disks from IndiAge® 2XL pretreated denim legs. Each denim disk is pre read with a Chroma Meter CR-200 by Minolta in order to determine the CIE L*a*b* values of both the front and backside of the fabric disk.
# One denim disk is placed in each well of two duplicate 12 well micro-titer plates. Each well received C. unicolor laccase (20 uL of 1/20 dilution, approx. 20 ppm), mediator (200, 100, 50 or 20 uL of a 20 mM stock solution in methanol) and 50 mM potassium phosphate buffer, pH 6 for a total volume of 2 mL/well. The mediators were methyl syringate (MS), 4-cyano-2,6-dimethoxyphenol (SN) and 3,4,5-trimethoxyphenol (TMP). The plates were sealed and incubated at 50° C. for 2 hours at 150 rpm in a standard incubator. Following this period, the swatches were removed from the plates and carefully placed on a filter paper in a Buchner funnel and washed with copious amounts of water, followed by drying of the residual water under high vacuum overnight. The swatches were then re-read with the chromometer in order to determine the CIE L*a*b* values of both the front and backside of the disk following bleaching. The total color difference (ΔE) is calculated from the difference between the initial and final CIE L*a*b* values according to the formula ΔE=(ΔL^2+Δa^2+Δb^2)^1/2 The total color differences (ΔE) as a function of mediator concentration are plotted in FIGS. 5 and 6.
compound,measurement,setting,value
"COc1cc(C#N)cc(OC)c1O [SN, 4-cyano-2,6-dimethoxyphenol]",effectiveness as mediator for denim swatch bleaching,"C. unicolor laccase 20 ppm, 200-2000 uM mediator",most effective mediator
same,ΔE (total color difference) Denim swatch Backside,mediator 200 uM,10.39 and 10.37
same,ΔE (total color difference) Denim swatch Frontside,mediator 200 uM,7.24 and 8.51
same,ΔL Denim swatch Backside,mediator 200 uM,8.38 and 8.67
same,ΔL Denim swatch Frontside,mediator 200 uM,6.63 and 7.98
same,Δa Denim swatch Backside,mediator 200 uM,0.54 and 0.38
same,Δb Denim swatch Backside,mediator 200 uM,6.12 and 5.67
same,Δb Denim swatch Frontside,mediator 200 uM,2.57 and 2.67
same,ΔE (total color difference) Denim swatch Backside,mediator 500 uM,13.43 and 14.11
same,ΔE (total color difference) Denim swatch Frontside,mediator 500 uM,15.59 and 13.17
same,ΔL Denim swatch Backside,mediator 500 uM,10.71 and 11.6
same,ΔL Denim swatch Frontside,mediator 500 uM,14.46 and 12.06
same,Δa Denim swatch Backside,mediator 500 uM,0.35 and 0.38
same,Δb Denim swatch Backside,mediator 500 uM,8.1 and 8.03
same,Δb Denim swatch Frontside,mediator 500 uM,5.51 and 4.92
same,ΔE (total color difference) Denim swatch Backside,mediator 1000 uM,13.98 and 15.19
same,ΔE (total color difference) Denim swatch Frontside,mediator 1000 uM,14.75 and 14.92
same,ΔL Denim swatch Backside,mediator 1000 uM,11.45 and 12.1
same,ΔL Denim swatch Frontside,mediator 1000 uM,13.54 and 13.84
same,Δa Denim swatch Backside,mediator 1000 uM,0.07 and 0.14
same,Δb Denim swatch Backside,mediator 1000 uM,8.02 and 9.19
same,Δb Denim swatch Frontside,mediator 1000 uM,5.47 and 4.98
same,ΔE (total color difference) Denim swatch Backside,mediator 2000 uM,15.31 and 16.59
same,ΔE (total color difference) Denim swatch Frontside,mediator 2000 uM,16.03 and 14.48
same,ΔL Denim swatch Backside,mediator 2000 uM,12.34 and 13.58
same,ΔL Denim swatch Frontside,mediator 2000 uM,14.79 and 13.23
same,Δb Denim swatch Backside,mediator 2000 uM,9.06 and 9.52
same,Δb Denim swatch Frontside,mediator 2000 uM,5.8 and 5.58
